The results in this text go back to patent US8114882B2, “(1H-indol-7-yl)-(pyrimidin-2-ylamino)methanone derivatives and related compounds as IGF-R1 inhibitors for the treatment of cancer” (Merck Patent GmbH, priority 2005, dated 2012).

The structures appear in SMILES notation. pIC50: −log10 of the molar value.

The term pIC50 denotes the IC50 on a negative log10 scale, so that one unit is a factor of ten.

For the test, the target named is T1, IGF-1R (Homo sapiens, UniProt P08069).
T1 construct: Cultivated human tumour cells which express the IGF1 receptor (IGF1R); endogenous in cells
T1 sequence (P08069 31-1367): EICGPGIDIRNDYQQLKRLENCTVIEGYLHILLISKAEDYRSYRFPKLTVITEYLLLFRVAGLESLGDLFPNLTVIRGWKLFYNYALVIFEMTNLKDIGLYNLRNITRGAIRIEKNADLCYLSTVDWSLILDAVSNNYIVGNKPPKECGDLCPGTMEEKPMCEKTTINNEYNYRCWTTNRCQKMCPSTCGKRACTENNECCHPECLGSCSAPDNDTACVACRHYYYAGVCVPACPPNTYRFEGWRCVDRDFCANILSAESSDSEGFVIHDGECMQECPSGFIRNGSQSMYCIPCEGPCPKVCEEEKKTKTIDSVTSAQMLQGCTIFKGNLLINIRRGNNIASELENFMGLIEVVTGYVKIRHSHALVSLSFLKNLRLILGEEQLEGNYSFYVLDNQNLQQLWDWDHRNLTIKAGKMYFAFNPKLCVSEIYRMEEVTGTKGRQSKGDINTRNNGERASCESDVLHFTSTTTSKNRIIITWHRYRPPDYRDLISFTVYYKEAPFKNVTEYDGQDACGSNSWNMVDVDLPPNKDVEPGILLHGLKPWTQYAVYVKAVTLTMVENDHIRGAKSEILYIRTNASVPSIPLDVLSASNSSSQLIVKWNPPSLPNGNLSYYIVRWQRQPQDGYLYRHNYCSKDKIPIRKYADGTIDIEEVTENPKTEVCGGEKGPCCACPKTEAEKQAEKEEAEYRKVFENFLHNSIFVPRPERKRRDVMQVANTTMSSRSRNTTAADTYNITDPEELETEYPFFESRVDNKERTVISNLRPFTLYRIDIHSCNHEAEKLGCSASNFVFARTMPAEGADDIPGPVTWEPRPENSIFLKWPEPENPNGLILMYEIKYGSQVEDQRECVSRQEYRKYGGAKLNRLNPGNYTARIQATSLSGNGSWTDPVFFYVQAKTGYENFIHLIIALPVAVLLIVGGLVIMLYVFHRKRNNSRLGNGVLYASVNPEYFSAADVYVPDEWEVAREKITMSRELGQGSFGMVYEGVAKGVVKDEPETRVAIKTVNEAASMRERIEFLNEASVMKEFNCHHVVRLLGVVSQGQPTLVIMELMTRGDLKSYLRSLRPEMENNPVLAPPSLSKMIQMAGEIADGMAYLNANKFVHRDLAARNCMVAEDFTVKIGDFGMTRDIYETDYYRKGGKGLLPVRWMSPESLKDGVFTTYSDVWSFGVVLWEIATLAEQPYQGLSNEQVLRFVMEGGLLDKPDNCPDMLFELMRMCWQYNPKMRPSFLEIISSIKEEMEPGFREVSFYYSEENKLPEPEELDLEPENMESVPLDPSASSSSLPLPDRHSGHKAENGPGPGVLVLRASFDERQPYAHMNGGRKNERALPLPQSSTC
Nature of the test: Inhibition of IGF-1R (IC50): IGF1-stimulated IGF1R autophosphorylation in human tumour cells, Capture-ELISA or LUMINEX. The note with it: Table 1; human tumour cells expressing IGF1R (for example MCF-7 or Calu-6), 45 min pre-treatment, 5 min IGF1 stimulation. It counts as cell-based. The procedure:
Cultivated human tumour cells which express the IGF1 receptor (IGF1R) (for example MCF-7 or Calu-6) are stimulated using human IGF1, the natural ligand of IGF1R. The stimulation induces autophosphorylation of tyrosine residues in the cytoplasmatic IGF1R domain, which triggers signal transduction cascades, which result in apoptosis inhibition and cell proliferation.
The amount of phosphorylated IGF1R is determined by a receptor-specific Capture-ELISA or an analogous LUMINEX assay. The IGF1R from cell lysates is bound to a 96-well ELISA plate or LUMINEX beads (“capturing”) by means of a specific antibody, and the tyrosine phosphorylation is detected using a biotin-labelled anti-phosphotyrosine antibody and a streptavidin peroxidase conjugate by a chemoluminescence method or by means of a fluorescence-labelled anti-phosphotyrosine antibody.
In order to determine the activity of kinase inhibitors, cells are pre-treated with increasing concentrations of these compounds for 45 min and subsequently stimulated using IGF1 for 5 min. As internal control, the biological activity of the ligand IGF1 is checked and a concentration series of an IGF1R reference inhibitor measured.
Background: In an ELISA, binding on a coated surface is turned into a signal by an enzyme label.
On to `Cc1cc(Nc2nccc(Nc3ccc(C(=O)c4cccc5cc[nH]c45)cc3)n2)n[nH]1`, for which the pIC50 was 5.54.
For the molecule `O=C(c1ccc(Nc2ccnc(NCC3CC(O)C3)n2)cc1)c1cccc2cc[nH]c12` (stereo not drawn), the pIC50 was 5.92.
Next, `O=C(c1ccc(Nc2ccnc(Cl)n2)cc1)c1cccc2cc[nH]c12`: 5.59; `O=C(c1ccc(Nc2ccnc(Nc3cc(-c4ccccc4)[nH]n3)n2)cc1)c1cccc2cc[nH]c12`: 5.00.
Next, `O=C(c1ccc(Nc2ccnc(Cl)n2)cc1)c1cccc2c1NCC2`: 5.11; `N#Cc1c[nH]c2c(C(=O)c3ccc(Nc4ccnc(Nc5ccc(C(=O)c6cccc7c(C#N)c[nH]c67)cc5)n4)cc3)cccc12`: 6.31; `O=C(c1ccc(Nc2nccc(NCc3cccnc3)n2)cc1)c1cccc2c1NCC2`: 5.62.
With `O=C(c1ccc(Nc2ccnc(Nc3ncc[nH]3)n2)cc1)c1cccc2cc[nH]c12` the figure was 6.82; with `O=C(c1ccc(Nc2ccnc(Nc3ccc(C(=O)c4cccc5cc[nH]c45)cc3)n2)cc1)c1cccc2cc[nH]c12`, 5.74.
Take `CC(C)(C)c1cc(Nc2nccc(Nc3ccc(C(=O)c4cccc5cc[nH]c45)cc3)n2)n[nH]1`: the pIC50 was 4.92.
Next, `COc1cc(Nc2nccc(Nc3ccc(C(=O)c4cccc5cc[nH]c45)cc3)n2)cc(OC)c1OC`: 5.66; `N#CCCNc1nccc(Nc2ccc(C(=O)c3cccc4cc[nH]c34)cc2)n1`: 5.51.
On to `O=C(c1c[nH]nc1Nc1nccc(Nc2cnc3ccccc3c2)n1)c1cccc2cc[nH]c12`, for which the pIC50 was 6.20.
`O=C(c1ccc(Nc2ccnc(Nc3cc(-c4ccco4)[nH]n3)n2)cc1)c1cccc2cc[nH]c12`: the pIC50 is 4.82.
Next, `O=C(c1ccc(Nc2ccnc(Nc3cc[nH]n3)n2)cc1)c1cccc2cc[nH]c12`: 5.62.
